Among the test systems are SK-MEL-2 melanoma; SK-OV-3 ovarian; OVCAR-4 ovarian; 786-0 renal; HT29 colon; SNB-75 CNS; UO-31 renal; SN12C renal; K-562 leukemia; HOP-92 NSCLC.
Holding throughout (assay): growth of human tumour cells (NCI), 48 h

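Briefly, cells in 96-well plates were exposed to five compound concentrations for 48 h, and endpoints were estimated by linear interpolation. GI50 is the concentration that inhibits growth by half. TGI denotes the concentration required for complete inhibition of growth.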

Regarding `COc1cc2ncn(-c3cc(OCc4ccccc4C(F)(F)F)c(C(N)=O)s3)c2cc1OC`, the GI50 with SK-MEL-2 melanoma was 0.207 µM; with SK-OV-3 ovarian, 0.251 µM; with OVCAR-4 ovarian, > 23.5 µM; with 786-0 renal it was 1.56 µM; with HT29 colon, 0.0889 µM; in the assay with SNB-75 CNS it was 2.7 µM. The GI50 in the assay with UO-31 renal was > 18.4 µM; in the assay with SN12C renal, 2.67 µM; with K-562 leukemia, 0.137 µM; in the assay on HOP-92 NSCLC, 2.2 µM. Further, the TGI was 12.3 µM in the assay with SK-MEL-2 melanoma; 9.09 µM with SK-OV-3 ovarian; > 25 µM in the assay with OVCAR-4 ovarian; 22.5 µM in the assay with 786-0 renal; > 25 µM with HT29 colon; 9.31 µM in the assay on SNB-75 CNS. The TGI is > 25 µM in the assay with UO-31 renal, > 25 µM in the assay with SN12C renal, > 25 µM with K-562 leukemia and 10.5 µM in the assay on HOP-92 NSCLC.
As for `COC(=O)C(=O)C(C(=O)C(=O)Nc1ccc([N+](=O)[O-])cc1)c1nc2ccccc2[nH]c1=O` (stereo not given), the TGI in the assay on SK-MEL-2 melanoma, in the assay with SK-OV-3 ovarian, with OVCAR-4 ovarian, in the assay on 786-0 renal, in the assay with HT29 colon and in the assay with SNB-75 CNS was > 100 µM each time. In addition, the TGI in the assay on UO-31 renal, in the assay on SN12C renal, in the assay with K-562 leukemia and in the assay with HOP-92 NSCLC was > 100 µM in each case.
Consider `CC1(C)N=C(N)N=C(N)N1c1ccc(CCCC(=O)Nc2ccc(S(=O)(=O)F)cc2)cc1`, for which the GI50 in the assay on SK-MEL-2 melanoma is 46.2 µM; in the assay with SK-OV-3 ovarian, > 100 µM; in the assay on OVCAR-4 ovarian it was > 62.3 µM; in the assay with 786-0 renal, 4.97 µM; in the assay on HT29 colon it was 2.9 µM; in the assay on SNB-75 CNS, 10.2 µM. Besides, the GI50 was > 100 µM in the assay on UO-31 renal, 6.15 µM in the assay on SN12C renal, 2.13 µM in the assay on K-562 leukemia and 10.7 µM in the assay on HOP-92 NSCLC. Also, the TGI in the assay with SK-MEL-2 melanoma, with SK-OV-3 ovarian, with OVCAR-4 ovarian, in the assay on 786-0 renal, with HT29 colon and in the assay with SNB-75 CNS was > 100 µM in each case. Also, the TGI in the assay on UO-31 renal, with SN12C renal, in the assay on K-562 leukemia and in the assay on HOP-92 NSCLC was > 100 µM throughout.
Consider `CC(=O)ON(OCc1ccc2ccccc2c1)C(C)=O`, for which the GI50 is > 100 µM in the assay on SK-MEL-2 melanoma; > 100 µM in the assay with SK-OV-3 ovarian; > 100 µM in the assay with OVCAR-4 ovarian; > 100 µM with 786-0 renal; > 100 µM in the assay with HT29 colon; 96.6 µM in the assay with SNB-75 CNS. The GI50 in the assay on UO-31 renal is 85 µM; in the assay with SN12C renal, > 100 µM; in the assay with K-562 leukemia it was > 100 µM; in the assay on HOP-92 NSCLC, 34.8 µM. Moreover, the TGI in the assay with SK-MEL-2 melanoma, in the assay with SK-OV-3 ovarian, with OVCAR-4 ovarian, with 786-0 renal, with HT29 colon and in the assay with SNB-75 CNS was > 100 µM throughout. The TGI in the assay on UO-31 renal, in the assay with SN12C renal, with K-562 leukemia and with HOP-92 NSCLC was > 100 µM each time.
Consider `O=C(N/C(=C\c1ccc([N+](=O)[O-])cc1)c1nc2ccccc2s1)c1ccccc1`, for which the TGI is 80.5 µM with SK-MEL-2 melanoma; > 100 µM with SK-OV-3 ovarian; 81.3 µM in the assay with OVCAR-4 ovarian; 34.1 µM in the assay on 786-0 renal; > 100 µM in the assay with HT29 colon; 63.5 µM with SNB-75 CNS. Further, the TGI was 56.3 µM in the assay with UO-31 renal, 44.9 µM in the assay with SN12C renal, 59.2 µM in the assay with K-562 leukemia and 68.8 µM with HOP-92 NSCLC.
As for `COc1ccc2nc3ccccc3c(NCCNCCO)c2c1`, the GI50 is 0.448 µM with SK-MEL-2 melanoma; 0.869 µM in the assay with SK-OV-3 ovarian; 0.836 µM in the assay with OVCAR-4 ovarian; 0.649 µM in the assay with 786-0 renal; 0.378 µM with HT29 colon; 0.854 µM in the assay on SNB-75 CNS. Moreover, the GI50 is 0.328 µM in the assay with UO-31 renal, 0.533 µM in the assay with SN12C renal, 0.356 µM in the assay on K-562 leukemia and 0.908 µM with HOP-92 NSCLC. Further, the TGI with SK-MEL-2 melanoma stood at 2.8 µM; with SK-OV-3 ovarian it was 7.67 µM; with OVCAR-4 ovarian, 3.26 µM; in the assay with 786-0 renal, 7.55 µM; with HT29 colon, 4.33 µM; in the assay with SNB-75 CNS, 2.13 µM. In addition, the TGI is 1.68 µM in the assay with UO-31 renal, 7.7 µM with SN12C renal, 4.33 µM with K-562 leukemia and 4.22 µM with HOP-92 NSCLC.
Consider `COC(=O)CC1(O)C(=O)OCc2c1cc1n(c2=O)Cc2c-1nc1ccccc1c2OC` (stereo not given), for which the TGI in the assay on SK-MEL-2 melanoma was 74.6 µM; with SK-OV-3 ovarian, 17.4 µM; in the assay on OVCAR-4 ovarian, > 36.1 µM; in the assay with 786-0 renal, 0.813 µM; in the assay on HT29 colon it was > 100 µM; in the assay on SNB-75 CNS it was 3.56 µM. For the same compound, the TGI with UO-31 renal was 30.5 µM; in the assay on SN12C renal, 1.84 µM; in the assay on K-562 leukemia it was > 100 µM; in the assay on HOP-92 NSCLC it was 92.2 µM.
With `O=C1CCC(c2ccccc2)=NN1c1nc2ccccc2s1`, the TGI is 42.5 µM in the assay with SK-MEL-2 melanoma; 79.6 µM in the assay with SK-OV-3 ovarian; > 100 µM in the assay on OVCAR-4 ovarian; > 100 µM in the assay on 786-0 renal; > 100 µM in the assay with HT29 colon; > 79.4 µM in the assay on SNB-75 CNS. Moreover, the TGI is > 100 µM in the assay on UO-31 renal, > 94.1 µM in the assay on SN12C renal, > 100 µM in the assay with K-562 leukemia and > 73.8 µM in the assay with HOP-92 NSCLC.
Turning to `O=C1/C(=C/c2ccc(Cl)cc2)CCC1CNc1ccc(Cl)cc1` (stereo not given), the TGI in the assay with SK-MEL-2 melanoma was 58.5 µM; in the assay on SK-OV-3 ovarian, > 31.4 µM; in the assay with OVCAR-4 ovarian, 54.5 µM; in the assay with 786-0 renal it was 6.73 µM; with HT29 colon, 41.1 µM; in the assay with SNB-75 CNS, 85.2 µM. The TGI with UO-31 renal came to 30.1 µM; in the assay on SN12C renal, 29.4 µM; with K-562 leukemia it was 21.3 µM; in the assay on HOP-92 NSCLC it was 50.4 µM.
